# Source: patent US12110294B2, “CD73 compounds” (Gilead Sciences, Inc., priority 2020, dated 2024)
# Molecular target: T1, CD73 activity in MDA-MB-231-GFP cells (Homo sapiens, UniProt P21589)
# T1 construct: endogenous in cells; host or cells: MDA-MB-231-GFP cells
# T1 sequence (P21589 27-549): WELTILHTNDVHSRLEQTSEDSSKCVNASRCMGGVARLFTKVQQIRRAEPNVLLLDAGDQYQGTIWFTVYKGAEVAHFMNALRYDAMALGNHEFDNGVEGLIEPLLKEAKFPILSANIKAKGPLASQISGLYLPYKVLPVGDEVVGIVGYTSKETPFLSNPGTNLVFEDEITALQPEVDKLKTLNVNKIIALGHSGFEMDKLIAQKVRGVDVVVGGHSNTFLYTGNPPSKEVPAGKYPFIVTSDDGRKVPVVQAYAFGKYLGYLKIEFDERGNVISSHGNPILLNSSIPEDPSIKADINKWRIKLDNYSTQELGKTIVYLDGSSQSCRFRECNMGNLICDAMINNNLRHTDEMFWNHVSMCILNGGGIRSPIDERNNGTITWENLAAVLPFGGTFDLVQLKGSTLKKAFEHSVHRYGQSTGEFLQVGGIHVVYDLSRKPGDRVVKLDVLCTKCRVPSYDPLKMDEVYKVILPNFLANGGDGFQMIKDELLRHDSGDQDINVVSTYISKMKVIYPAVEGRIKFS
# Assay: MDA-MB-231 Cell Based CD73 Activity Assay (DMEM)
# Details: 3000 cells per well, DMEM medium with 10% human plasma, overnight compound treatment, AMP 200 uM
# Description: MDA-MB-231 Cell Based CD73 Activity Assay (DMEM) MDA-MB-231-GFP cells were seeded in 384-well plates (Greiner 781946) at a density of 3000 cells per well in 50 μL of DMEM medium with 10% HP (human plasma). Cells were plated into assay plate with compounds pre-spotted, for an overnight compound treatment. 50 uL of 400 uM AMP (final concentration will be 200 uM) was added using Bio-tek dispenser. Plates were incubated for 100 mins. […] The samples were analyzed using Rapid fire.
row,EC50 [nM],SMILES
1,0.14,"O=c1[nH]cc(-c2cc([C@H]3C[C@@H]3c3ccc4c(F)nn(CC(F)(F)F)c4c3)c3nccn3n2)c(=O)[nH]1 (racemic) [Example 117, 5-(8-((2S,2S)-2-(3-fluoro-1-(2,2,2-trifluoroethyl)-1H-indazol-6-yl)cyclopropyl)imidazo[1,2-b]pyridazin-6-yl)pyrimidine-2,4(1H,3H)-dione]"
2,0.1,"O=c1[nH]cc(-c2cc([C@H]3C[C@@H]3c3ccc4cnn(CC5CC5(F)F)c4c3)c3nccn3n2)c(=O)[nH]1 (mixture of isomers) [Example 118, 5-(8-((2S,2S)-2-(1-((2,2-difluorocyclopropyl)methyl)-1H-indazol-6-yl)cyclopropyl)imidazo[1,2-b]pyridazin-6-yl)pyrimidine-2,4(1H,3H)-dione]"
3,0.17,"O=c1[nH]cc(-c2cc([C@H]3C[C@@H]3c3cc4c(ccn4CC(F)(F)F)cn3)c3nccn3n2)c(=O)[nH]1 (racemic) [Example 127, 5-(8-((2S,2S)-2-(1-(2,2,2-trifluoroethyl)-1H-pyrrolo[3,2-c]pyridin-6-yl)cyclopropyl)imidazo[1,2-b]pyridazin-6-yl)pyrimidine-2,4(1H,3H)-dione]"
4,0.4,"O=c1[nH]cc(-c2cc([C@H]3C[C@@H]3c3ccc4c(C5CC5)nn(CC(F)(F)F)c4c3)c3nccn3n2)c(=O)[nH]1 (racemic) [Example 128, 5-(8-((2S,2S)-2-(3-cyclopropyl-1-(2,2,2-trifluoroethyl)-1H-indazol-6-yl)cyclopropyl)imidazo[1,2-b]pyridazin-6-yl)pyrimidine-2,4(1H,3H)-dione]"
5,0.13,"O=c1[nH]cc(-c2cc([C@H]3C[C@@H]3c3ccc4cnn(CC5CC5)c4c3)c3nccn3n2)c(=O)[nH]1 (racemic) [Example 130, 5-(8-((2S,2S)-2-(1-(cyclopropylmethyl)-1H-indazol-6-yl)cyclopropyl)imidazo[1,2-b]pyridazin-6-yl)pyrimidine-2,4(1H,3H)-dione]"
6,13.1,"O=c1[nH]cc(-c2cc([C@H]3C[C@@H]3c3ccc4ncsc4c3)c3nc(C4CC4)cn3n2)c(=O)[nH]1 (racemic) [Example 143, 5-(8-((1S,2S)-2-(benzo[d]thiazol-6-yl)cyclopropyl)-2-cyclopropylimidazo[1,2-b]pyridazin-6-yl)pyrimidine-2,4(1H,3H)-dione]"
7,1.94,"N#Cc1ccc([C@H]2C[C@@H]2c2cc(-c3c[nH]c(=O)[nH]c3=O)nn3c(F)cnc23)nc1 (racemic) [Example 151, 6-((1S,2S)-2-(6-(2,4-dioxo-1,2,3,4-tetrahydropyrimidin-5-yl)-3-fluoroimidazo[1,2-b]pyridazin-8-yl)cyclopropyl)nicotinonitrile]"
8,5.75,"O=c1[nH]cc(-c2cc([C@H]3C[C@@H]3c3ccc4cccnc4c3)c3nccn3n2)c(=O)[nH]1 (racemic) [Example 154, 5-(8-((1S,2S)-2-(quinolin-7-yl)cyclopropyl)imidazo[1,2-b]pyridazin-6-yl)pyrimidine-2,4(1H,3H)-dione]"
9,5.42,"N#Cc1ccc([C@H]2C[C@@H]2c2cc(-c3c[nH]c(=O)[nH]c3=O)nn3ccnc23)nc1 (racemic) [Example 155, 6-((1S,2S)-2-(6-(2,4-dioxo-1,2,3,4-tetrahydropyrimidin-5-yl)imidazo[1,2-b]pyridazin-8-yl)cyclopropyl)nicotinonitrile]"
10,1.87,"O=c1[nH]cc(-c2cc([C@H]3C[C@@H]3c3ccc4cnccc4c3)c3nccn3n2)c(=O)[nH]1 (racemic) [Example 156, 5-(8-((1S,2S)-2-(isoquinolin-6-yl)cyclopropyl)imidazo[1,2-b]pyridazin-6-yl)pyrimidine-2,4(1H,3H)-dione]"
11,2.81,"O=c1[nH]cc(-c2cc([C@H]3C[C@@H]3c3ccc4ncccc4c3)c3nccn3n2)c(=O)[nH]1 (racemic) [Example 157, 5-(8-((2S,2S)-2-(quinolin-6-yl)cyclopropyl)imidazo[1,2-b]pyridazin-6-yl)pyrimidine-2,4(1H,3H)-dione]"
12,27.8,"O=c1[nH]cc(-c2cc([C@H]3C[C@@H]3c3ccnc(C(F)(F)F)c3)c3nccn3n2)c(=O)[nH]1 (racemic) [Example 160, 5-(8-((2S,2S)-2-(2-(trifluoromethyl)pyridin-4-yl)cyclopropyl)imidazo[1,2-b]pyridazin-6-yl)pyrimidine-2,4(1H,3H)-dione]"
13,11,"O=c1[nH]cc(-c2cc([C@H]3C[C@@H]3c3ccncc3F)c3nccn3n2)c(=O)[nH]1 (racemic) [Example 161, 5-(8-((1S,2S)-2-(3-fluoropyridin-4-yl)cyclopropyl)imidazo[1,2-b]pyridazin-6-yl)pyrimidine-2,4(1H,3H)-dione]"
14,10.6,"O=c1[nH]cc(-c2cc([C@H]3C[C@@H]3c3cnc4ccccc4c3)c3nccn3n2)c(=O)[nH]1 (racemic) [Example 163, 5-(8-((1S,2S)-2-(quinolin-3-yl)cyclopropyl)imidazo[1,2-b]pyridazin-6-yl)pyrimidine-2,4(1H,3H)-dione]"
15,14,"O=c1[nH]cc(-c2cc([C@H]3C[C@@H]3c3cncc(F)c3)c3nccn3n2)c(=O)[nH]1 (racemic) [Example 164, 5-(8-((1S,2S)-2-(5-fluoropyridin-3-yl)cyclopropyl)imidazo[1,2-b]pyridazin-6-yl)pyrimidine-2,4(1H,3H)-dione]"
16,38.7,"O=c1[nH]cc(-c2cc([C@H]3C[C@@H]3c3ccc(C(F)(F)F)cc3F)c3nccn3n2)c(=O)[nH]1 (racemic) [Example 165, 5-(8-((1S,2S)-2-(2-fluoro-4-(trifluoromethyl)phenyl)cyclopropyl)imidazo[1,2-b]pyridazin-6-yl)pyrimidine-2,4(1H,3H)-dione]"
17,378,"O=c1[nH]cc(-c2cc([C@H]3C[C@@H]3c3cccc4ccncc34)c3nccn3n2)c(=O)[nH]1 (racemic) [Example 166, 5-(8-((1S,2S)-2-(isoquinolin-8-yl)cyclopropyl)imidazo[1,2-b]pyridazin-6-yl)pyrimidine-2,4(1H,3H)-dione]"
18,152,"O=c1[nH]cc(-c2cc([C@H]3C[C@@H]3c3ccnc4ccccc34)c3nccn3n2)c(=O)[nH]1 (racemic) [Example 167, 5-(8-((1S,2S)-2-(quinolin-4-yl)cyclopropyl)imidazo[1,2-b]pyridazin-6-yl)pyrimidine-2,4(1H,3H)-dione]"
19,306,"O=c1[nH]cc(-c2cc([C@H]3C[C@@H]3c3cccc4cnccc34)c3nccn3n2)c(=O)[nH]1 (racemic) [Example 168, 5-(8-((1S,2S)-2-(isoquinolin-5-yl)cyclopropyl)imidazo[1,2-b]pyridazin-6-yl)pyrimidine-2,4(1H,3H)-dione]"
20,65.1,"CCOC(=O)c1cn2nc(-c3c[nH]c(=O)[nH]c3=O)cc([C@H]3C[C@@H]3c3ccc(F)cc3)c2n1 (racemic) [Example 172, ethyl 6-(2,4-dioxo-1,2,3,4-tetrahydropyrimidin-5-yl)-8-((1S,2S)-2-(4-fluorophenyl)cyclopropyl)imidazo[1,2-b]pyridazine-2-carboxylate]"
21,4.35,"O=c1[nH]cc(-c2cc([C@H]3C[C@@H]3c3ccccn3)c3ncc(F)n3n2)c(=O)[nH]1 (racemic) [Example 178, 5-(3-fluoro-8-((1S,2S)-2-(pyridin-2-yl)cyclopropyl)imidazo[1,2-b]pyridazin-6-yl)pyrimidine-2,4(1H,3H)-dione]"
22,60.5,"O=c1[nH]cc(-c2cc([C@H]3C[C@@H]3c3cncnc3)c3ncc(F)n3n2)c(=O)[nH]1 (racemic) [Example 179, 5-(3-fluoro-8-((1S,2S)-2-(pyrimidin-5-yl)cyclopropyl)imidazo[1,2-b]pyridazin-6-yl)pyrimidine-2,4(1H,3H)-dione]"
23,4.67,"O=c1[nH]cc(-c2cc([C@H]3C[C@@H]3c3cccnc3)c3ncc(F)n3n2)c(=O)[nH]1 (racemic) [Example 180, 5-(3-fluoro-8-((1S,2S)-2-(pyridin-3-yl)cyclopropyl)imidazo[1,2-b]pyridazin-6-yl)pyrimidine-2,4(1H,3H)-dione]"
24,6.42,"O=c1[nH]cc(-c2cc([C@H]3C[C@@H]3c3ccncc3)c3ncc(F)n3n2)c(=O)[nH]1 (racemic) [Example 181, 5-(3-fluoro-8-((1S,2S)-2-(pyridin-4-yl)cyclopropyl)imidazo[1,2-b]pyridazin-6-yl)pyrimidine-2,4(1H,3H)-dione]"
25,10.4,"O=c1[nH]cc(-c2cc([C@H]3C[C@@H]3c3ccc(Cl)cc3)c3ncc(F)n3n2)c(=O)[nH]1 (racemic) [Example 182, 5-(8-((2S,2S)-2-(4-chlorophenyl)cyclopropyl)-3-fluoroimidazo[1,2-b]pyridazin-6-yl)pyrimidine-2,4(1H,3H)-dione]"
26,23.9,"O=c1[nH]cc(-c2cc([C@H]3C[C@@H]3c3ccc(C(F)(F)F)cc3)c3ncc(F)n3n2)c(=O)[nH]1 (racemic) [Example 183, 5-(3-fluoro-8-((1S,2S)-2-(4-(trifluoromethyl)phenyl)cyclopropyl)imidazo[1,2-b]pyridazin-6-yl)pyrimidine-2,4(1H,3H)-dione]"
